Measured values: PMC10844371 (Diabetologia, 2023)
pIC50: −log10 of the molar value.

Columns and labels:
human pancreatic islets = experiment: Glucagon secretion in human islets (ELISA); format: cell-based; details: human islets, 10 pmol/l, 1 mmol/l glucose
Method: Human pancreatic islets were isolated (with ethical approval and clinical consent) as previously described. Islets from the pancreases of 18 healthy donors and five donors with type 2 diabetes were used (see electronic supplementary material [ESM] Table 1; ESM Human islets checklist).
(§1) Mouse islets were used acutely, except for studies with PTX, wherein islets were treated overnight with the toxin. Human islets were maintained in culture for up to 48 h in RPMI medium containing 10% (vol./vol.) FCS, 1% (vol./vol.) penicillin/streptomycin and 5 mmol/l glucose. Experiments were conducted as previously described. Islets were incubated in 0.3 ml EC1 or EC2 media (ESM Table 2) supplemented with glucose and other reagents as indicated. Glucagon was determined by ELISA (Mercodia).
(§2) All data are reported, unless otherwise stated, as mean values ± SEM for the indicated number of experiments using islets from multiple mice. For hormone release studies, islets were isolated and pooled from 4–16 mice. These islets were then subdivided into groups of 12–20 size-matched islets. Each unique set of islets counted as an experiment with the experiments repeated on 2–4 days. Similarly, each unique group of human islets was treated as an experiment. […] In the Ca^2+ imaging and granule docking experiment, each cell represents an experiment making sure that cells from multiple donors/animals were used. For the in vivo experiments and the perfused pancreas, each mouse count represents an experiment. For two groupings, a t test was conducted. For multiple comparisons, one-way ANOVA was conducted. All statistical tests were performed using Graphpad Prism (version 9.1.0; graphpad.com). It was ascertained that the data were normally distributed.

[1] = test system: isolated mouse pancreatic islets; format: cell-based
Method: Experiments were conducted as previously described. Islets were incubated in 0.3 ml EC1 or EC2 media (ESM Table 2) supplemented with glucose and other reagents as indicated.
as §2, with “graphpad.com).” for “graphpad.com). It was ascertained that the data were normally distributed.”

[2] = test system: PKA activity in alpha cells; experiment: PKA activity measurements (AKAR3) in alpha cells in intact islets; format: cell-based, mouse
Method: PKA activity was measured using AKAR3 as previously described. The cells were continuously superfused at a rate of 60 μl/min with EC4 (ESM Table 2).

[3] = test system: isolated mouse pancreatic islets; experiment: Insulin secretion in isolated mouse islets (RIA); format: cell-based
Method: as §1, with “indicated.” for “indicated. Glucagon was determined by ELISA (Mercodia).”
(§3) Insulin and somatostatin were determined by RIA (Millipore and Diasource ImmunoAssays, respectively) as described previously. In these experiments, rates of release are expressed as % of contents unless otherwise indicated.

[4] = test system: isolated mouse pancreatic islets; experiment: Somatostatin secretion in isolated mouse islets (RIA); format: cell-based; details: 1 mmol/l glucose, groups of 20 islets
Method: as §1, §3

mouse alpha cells = experiment: TIRF imaging of docked secretory granules in mouse alpha cells; format: cell-based
Method: Cells were imaged using total internal reflection fluorescence (TIRF) microscopy (AxioObserver Z1 with a ×100/1.45 objective [Carl Zeiss] and a diode-pumped solid state laser at 491 nm). For these measurements, EC1 was used (ESM Table 2). Images from cells infected with preproglucagon promoter (PPPG)-neuropeptide Y (NPY)-enhanced green fluorescent protein (EGFP) virus were recorded using an electron-multiplying charge-coupled device camera (Photometrics Evolve) using ZEN blue. Single images of cells were acquired to measure the number of docked granules. Incoming and outgoing granules during visiting, docking and undocking were determined from multiple frame movies as described previously. Candidate docking or undocking events were found manually as granules that approached the TIRF field with an axial component and became laterally confined for at least two frames. We defined docking as granules that remained confined for at least 1 min. Visitors were those granules that remained for <1 min after appearing at the plasma membrane. Undocking was defined as slow movement of a previously docked granule away from its docking site. Granule density was calculated using a script that used the built-in ‘find maxima’ function in ImageJ (version 1.53c; http://rsbweb.nih.gov/ij) for spot detection.

P/Q-type Ca^2+ channels = experiment: [Ca2+]i imaging of depolarisation-evoked Ca2+ entry in alpha cells (Gcg-GCaMP6f islets); format: cell-based, mouse; details: in the presence of GLP-1(9–36) 10 pmol/l; p=0.26
Method: For live-cell cytoplasmic free Ca^2+ concentration ([Ca^2+]i) imaging experiments, Gcg-GCaMP6f islets were immobilised to a poly-L-lysine-coated coverslip fixed in a custom-built imaging chamber filled with EC3 (ESM Table 2). [Ca^2+]i was measured in islets from mice expressing GCaMP6f in alpha cells. [Ca^2+]i imaging experiments were then performed using an inverted LSM 510 confocal microscope (Zeiss) controlled with ZEN Black (Zeiss), using a ×40/1.3 oil immersion objective. Time-lapse images were collected every 0.98 s with a frame size of 256×256 pixels, with the bath solution (EC3) perfused at a rate of 0.4 ml/min and heated to 37°C. GCaMP6f was excited by an argon laser (488 nm) and emission was collected at 510 nm.
[Ca^2+]i imaging videos were analysed using the Fiji imaging processing package. The mean fluorescence (F) of each region of interest was normalised to baseline signal (F0) and expressed as F/F0 before exporting into ClampFit (version 10.7; Molecular Devices, CA, USA), where baseline was corrected and AUC was calculated.

CC[C@H](C)[C@H](NC(=O)[C@H](Cc1ccccc1)NC(=O)[C@H](CCC(=O)O)NC(=O)[C@H](CCCCN)NC(=O)[C@H](C)NC(=O)[C@H](C)NC(=O)[C@H](CCC(N)=O)NC(=O)CNC(=O)[C@H](CCC(=O)O)NC(=O)[C@H](CC(C)C)NC(=O)[C@H](Cc1ccc(O)cc1)NC(=O)[C@H](CO)NC(=O)[C@H](CO)NC(=O)[C@@H](NC(=O)[C@H](CC(=O)O)NC(=O)[C@H](CO)NC(=O)[C@@H](NC(=O)[C@H](Cc1ccccc1)NC(=O)[C@@H](NC(=O)CNC(=O)[C@H](CCC(=O)O)NC(=O)[C@H](C)NC(=O)[C@@H](N)Cc1c[nH]cn1)[C@@H](C)O)[C@@H](C)O)C(C)C)C(=O)N[C@@H](C)C(=O)N[C@@H](Cc1c[nH]c2ccccc12)C(=O)N[C@@H](CC(C)C)C(=O)N[C@H](C(=O)N[C@@H](CCCCN)C(=O)NCC(=O)N[C@@H](CCCNC(=N)N)C(N)=O)C(C)C [GLP-1(7–36)]
inhibition of glucagon secretion (human pancreatic islets): ~ 50% | inhibitory effect on glucagon secretion in Glp1r−/− mouse islets ([1]; 10 pmol/l, Glp1r−/− islets, 1 mmol/l glucose): persisted | inhibitory effect on glucagon secretion in Glp1r−/− islets after PTX ([1]; 10 pmol/l, Glp1r−/− islets, PTX pretreatment): abolished | change of the inhibitory effect on glucagon secretion by exendin(9–39) ([1]; 10 pmol/l, exendin(9–39) 1 μmol/l): reduced | glucagonostatic effect in the presence of exendin(9–39) ([1]; 10 pmol/l, exendin(9–39) 1 μmol/l, 1 mmol/l glucose): retained their glucagonostatic effect | glucagonostatic effect in the presence of the PKA inhibitor 8-Br-Rp-cAMPS ([1]; 8-Br-Rp-cAMPS 10 μmol/l, 1 mmol/l glucose): not affected | glucagonostatic effect remaining with exendin(9–39), in the presence of sitagliptin ([1]; exendin(9–39) plus DPP-4 inhibitor sitagliptin): abolished | inhibition of glucagon secretion ([1]; islets cultured overnight without PTX, 1 mmol/l glucose): ~ 50% | inhibitory effect on glucagon secretion after PTX pretreatment ([1]; overnight PTX 100 ng/ml, 1 mmol/l glucose): unaffected | pIC50 ([1]; read-out: half-maximal inhibitory concentration (IC50) for inhibition of glucagon secretion, isolated mouse islets, 1 mmol/l glucose, groups of 12 islets from 4–6 mice, glucagon ELISA): 11.60 | effect on PKA activity in alpha cells ([2]; 10 pmol/l): no inhibitory effect | effect on cAMP/PKA activity in alpha cells ([2]; 10,000 pmol/l): increased cAMP/PKA activity | insulinotropic effect in Glp1r−/− mouse islets ([3]; Glp1r−/− islets): lost | concentrations at which stimulation of insulin secretion attained statistical significance ([3]; mouse islets, 1 mmol/l glucose): ≥ 100 pmol/L | concentration at which stimulation of somatostatin secretion was already detectable [4]: 10 pmol/L

CCCOc1ccc(Br)cc1-c1cc(-c2ccc(Cl)cc2)[nH]c1-c1ccncc1 [L-168049]
effect on the glucagonostatic effect of GLP-1(9–36) ([1]; mouse islets, L-168049 100 nmol/l, GLP-1(9–36) 10 pmol/l): abolished

CC1=NS(=O)(=O)c2cc(Cl)ccc2N1 [diazoxide]
reduction of submembrane granule density (mouse alpha cells; 200 μmol/l): ~ 40%

CC(C)NCC(O)c1ccc(O)c(O)c1 (stereo not drawn) [isoprenaline]
stimulation of glucagon secretion ([1]; mouse islets, 1 mmol/l glucose): > 2.2 fold

ω-agatoxin
effect on glucagon secretion ([1]; 200 nmol/l, 1 mmol/l glucose): inhibited glucagon secretion nearly as strongly as GLP-1(9–36) | reduction of the number of docked granules (mouse alpha cells; 200 nmol/l): to the same extent as GLP-1(9–36) | further change of Ca2+ entry on addition in the presence of GLP-1(9–36) (P/Q-type Ca^2+ channels): −8±4%
